Test results as given in article PMC10127268, “Rational Design of Phosphorylation-Responsive Coiled Coil-Peptide Assemblies” (ACS Synthetic Biology, 2023).
Where two headings read alike, the source gives them in different places.

T1: CC-Tet-A-S14 (N-terminal acetyl; C-terminal amide)
T1 chain: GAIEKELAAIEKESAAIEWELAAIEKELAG

T2: apCC-Tet-A-S17 (N-terminal acetyl; C-terminal amide)
T2 chain: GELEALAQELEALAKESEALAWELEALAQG


Experiments:
[1] = CD, PBS pH 7.4, 10 μM individual peptide; ref 5 (Edgell et al., 2020); cited from earlier work
Procedure: page 28: Table S4. Biophysical parameters for switchable peptides and complexes. Peptide(s) Helicity at 5 °C (%)a TM (°C) CC-Tet-A 37b < 20b CC-Tet-B 37b < 20b CC-Tet-A-S14 23 < 20 CC-Tet-A-S7 29 < 20 CC-Tet-A-S21 25 < 20 CC-Tet-B-RRXS14 26 < 20 CC-Tet-A + B 87b > 95b CC-Tet-A-S14 + B-RRXS14 67 62 CC-Tet-A-S7 + B-RRXS14 70 66 CC-Tet-A-S21 + B-RRXS14 81 72 apCC-Tet-A-S10 48 < 20 apCC-Tet-A-S17 42 < 20 apCC-Tet-B-S20 40 < 20 apCC-Tet-B-RRXS13 39 < 20 apCC-Tet-B-RRXS20 38 < 20 apCC-Tet-A-S10 + B-S20 93 > 95 apCC-Tet-A-S10 + B-RRXS20 80 75 apCC-Tet-A-S17 + B-RRXS13 84 72 apCC-Tet-A-S17 + B-RRXS20 ...

[2] = even at 100 μM; cited from earlier work
[3] = CD spectroscopy, helicity at 5 °C; type: physicochemical; details: PBS pH 7.4, 10 μM individual peptide
Procedure: (§1) CD spectra and thermal denaturation curves were obtained using a JASCO J810 or 815 spectropolarimeter fitted with a Peltier temperature controller. CD spectra (260 to 190 nm, with 1 nm step size, 100 nm.min^–1 scanning speed, 1 nm bandwidth and 1 s response time) were measured in PBS (137 mM NaCl, 2.7 mM KCl, and 10 mM phosphate buffer, pH 7.4) at 5 °C in quartz cuvettes. Thermal denaturation experiments were performed using 10 μM individual peptide concentration in a 5 mm cuvette. For thermal denaturation experiments, the CD signal at 222 nm was recorded at 1 °C intervals upon heating from 5 to 95 °C at a rate of 40 or 60 °C/h (1 nm interval, 1 nm bandwidth, 16 s response time). Data was buffer subtracted, and then normalized for peptide concentration, number of amide bonds present, and cuvette path length to give the mean residue ellipticity (MRE). Midpoints of thermal denaturation were calculated using the second derivative of the corresponding thermal denaturation curve. Fraction helix (%) was calculated using the following equation (where MREcoil = 640 – 45T; T, temperature (°C); n, number of amide bonds in sample including C-terminal amide):[68] [drawing 2]

[4] = Thermal denaturation monitored by CD (MRE222), midpoint TM; type: physicochemical; details: for TM (°C), midpoint of thermal unfolding: CD at 222 nm, 5 to 95 °C, PBS pH 7.4, 10 μM individual peptide; for folding and thermal stability by CD, in words: PBS pH 7.4, 10 µM individual peptide
Procedure: as §1

CC-Tet-A-S14 [5] = test: Isothermal titration calorimetry (ITC) of CC-Tet-B-RRXS14 into CC-Tet-A-S14; type: binding; details: 200 μM CC-Tet-B-RRXS14 into 20 μM CC-Tet-A-S14, PBS, 37 °C, heterodimer model, global fit n = 3, read-out: observable KD (concentration at which the complex is half folded)
Procedure: To model the disassembly of the A2B2 complex into the unfolded peptides A and B, we needed to determine the dissociation constant (KD) and use this to estimate the forward and reverse rate constants, koff and kon (Figure 5). To do this, we used isothermal titration calorimetry (ITC), titrating CC-Tet-B-RRXS14 into 20 μM CC-Tet-A-S14 at 37 °C, and the heat released upon binding was measured. […] We contend that this sub-μM KD—which is consistent with our CD measurements (Figure S30)—is close to ideal for use in synthetic biology systems in cells and in vitro, as functioning at μM concentrations leaves the system poised in a folded state, but close to unfolding, rendering it receptive to phosphorylation-induced switching.
Peptides were dissolved in PBS buffer to a concentration around 1 mM and a volume of 1 mL. Samples were then individually dialyzed into 1.5 L of PBS with gentle stirring overnight using a Mini Dialysis Kit (Cyvita) with a 1 kDa membrane cut off. Sample concentration was subsequently remeasured to account for changes in volume because of diffusion during dialysis. […]
To analyze the data, NITPIC, SEDPHAT, and GUSSI were used.[72]−[74] […] Following this, experiments were analyzed using SEDPHAT, which allowed correction of concentration deviations and outlier injection exclusion, after which data was fitted to a heterodimer model (as no heterotetramer model was available). […]

[6] = Sedimentation-velocity analytical ultracentrifugation; type: physicochemical; details: PBS pH 7.4, 20 °C, 70 μM of each peptide for mixtures
Procedure: Sedimentation-velocity (SV) experiments were conducted at 20 °C in a Beckman-Optima XL-I analytical ultracentrifuge using an An-60 Ti rotor. Samples were prepared in PBS at 140 μM total peptide concentration. Samples were centrifuged at a speed of 50,000 or 60,000 rpm. The partial specific volume (v̅) for each peptide was calculated and data sets were fitted to a single, ideal species model using SEDFIT. Sedimentation-equilibrium (SE) experiments were conducted at 20 °C in a Beckman-Optima XL-I analytical ultracentrifuge using an An-50 Ti rotor. Samples were prepared in PBS at 70 μM total peptide concentration. Samples were centrifuged at a range of speeds from 18,000–39,000 rpm with defined intervals, and 8 h between subsequent scans. Data sets were analyzed using SEDPHAT.

CC-Tet-A-S14 [7] = target: T1, CC-Tet-A-S14; test: ITC; 200 μM CC-Tet-B-RRXS14 injected into 20 μM CC-Tet-A-S14, 37 °C, PBS; fitted to a heterodimer model, global fit of three experiments; observable (apparent) KD; details: both partners purified
CC-Tet-A-S14 [8] = target: T1, CC-Tet-A-S14; test: kinetic model fitted to the CD phosphorylation time course; ordinary differential equations (Berkeley Madonna); koff and kon optimised with K_D(T) held at 3.18 × 10^-19 M^3; tetramer A2B2 to unfolded peptides A and B; 37 °C, 10 μM of each peptide; details: both partners purified
apCC-Tet-A-S17 = target: T2, apCC-Tet-A-S17; test: circular dichroism (Job plot); fraction helix at different ratios of the two peptides, total peptide concentration 20 μM, PBS pH 7.4; details: both partners purified

Molecule | Helicity at 5 °C (%) [3] | TM (°C), midpoint of thermal unfolding [4] | also measured
Ac-G AIEK ELAAIEK ELAAIEW ELAAIEK ELA G-NH2 [CC-Tet-A, acidic peptide of the previously published parallel heterotetramer CC-Tet-A2B2] |  |  | TM (°C), midpoint of thermal unfolding [1]: < 20 °C; self-association of individual peptide [2]: do not self-associate
Ac-G AIEK ELAAIEK ELAAIEW ESAAIEK ELA G-NH2 [CC-Tet-A-S21, CC-Tet-A variant with Ser at position 21] | 25% | < 20 °C | 
Ac-G AIEK ELAAIEK ESAAIEW ELAAIEK ELA G-NH2 [CC-Tet-A-S14, CC-Tet-A variant with Ser at position 14] | 23% | < 20 °C | 
Ac-G AIEK ESAAIEK ELAAIEW ELAAIEK ELA G-NH2 [CC-Tet-A-S7, CC-Tet-A variant with Ser at position 7] | 29% | < 20 °C | 
Ac-G AIKQ KLAAIKQ KLAAIKW KLAAIKQ KLA G-NH2 [CC-Tet-B, basic peptide of the previously published parallel heterotetramer CC-Tet-A2B2] |  |  | TM (°C), midpoint of thermal unfolding [1]: < 20 °C; self-association of individual peptide [2]: do not self-associate
Ac-G AIKQ KLAAIRR KSAAIKW KLAAIKQ KLA G-NH2 [CC-Tet-B-RRXS14, basic parallel peptide with PKA site R-R-X-S, Ser at position 14] | 26% | < 20 °C | Kd (CC-Tet-A-S14 [5]): 542 nM
Ac-G ELEALAQ ELEALAK ELEALAW ELEALAQ G-NH2 [apCC-Tet-A1, initial acidic antiparallel design] |  |  | folding and thermal stability by CD, in words [4]: stably folded; oligomeric state from SV AUC (x monomer mass) [6]: 4.5 x monomer mass
Ac-G KLKALAQ KLKALAK KLKALAW KLKALAQ G-NH2 [apCC-Tet-B1, initial basic antiparallel design] |  |  | folding and thermal stability by CD, in words [4]: stably folded; oligomeric state from SV AUC (x monomer mass) [6]: 5.2 x monomer mass
Ac-GAIKQKLAAIRRKSAAIKWKLAAIKQKLAG-NH2 [CC-Tet-B-RRXS14] |  |  | Kd (CC-Tet-A-S14 [7]): 542 nM; stoichiometry N (CC-Tet-A-S14 [7]): ~1; koff (CC-Tet-A-S14 [8]): 0.0038 s⁻¹; kon (CC-Tet-A-S14 [8]): 229000 M⁻¹ s⁻¹
Ac-GKLKALAQKLKALAKKLKASAWKLKALAQG-NH2 [apCC-Tet-B-S20] |  |  | stoichiometry N (apCC-Tet-A-S17): 1

Now from value to molecule, other results behind:

Helicity at 5 °C (%) [3] | TM (°C), midpoint of thermal unfolding [4] | Molecule | also measured
42% | < 20 °C | Ac-G ELEALAQ ELEALAK ESEALAW ELEALAQ G-NH2 [apCC-Tet-A-S17, acidic antiparallel peptide with Ser at position 17] | 
48% | < 20 °C | Ac-G ELEALAQ ESEALAK ELEALAW ELEALAQ G-NH2 [apCC-Tet-A-S10, acidic antiparallel peptide with Ser at position 10] | 
40% | < 20 °C | Ac-G KLKALAQ KLKALAK KLKASAW KLKALAQ G-NH2 [apCC-Tet-B-S20, basic antiparallel peptide with Ser at position 20] | 
38% | < 20 °C | Ac-G KLKALAQ KLKALAK KRRASAW KLKALAQ G-NH2 [apCC-Tet-B-RRXS20, basic antiparallel peptide with PKA site, Ser at position 20] | 
39% | < 20 °C | Ac-G KLKALAQ KRRASAK KLKALAW KLKALAQ G-NH2 [apCC-Tet-B-RRXS13, basic antiparallel peptide with PKA site, Ser at position 13] | 
